Source: the Kinase Knowledgebase extract (Sharma et al. 2016)

Target: PIK3CG (human) (UniProt P48736)
Assay: Inhibition of PIK3CG Kinase Activity

Chain of PIK3CG (human) (P48736 whole entry, looked up): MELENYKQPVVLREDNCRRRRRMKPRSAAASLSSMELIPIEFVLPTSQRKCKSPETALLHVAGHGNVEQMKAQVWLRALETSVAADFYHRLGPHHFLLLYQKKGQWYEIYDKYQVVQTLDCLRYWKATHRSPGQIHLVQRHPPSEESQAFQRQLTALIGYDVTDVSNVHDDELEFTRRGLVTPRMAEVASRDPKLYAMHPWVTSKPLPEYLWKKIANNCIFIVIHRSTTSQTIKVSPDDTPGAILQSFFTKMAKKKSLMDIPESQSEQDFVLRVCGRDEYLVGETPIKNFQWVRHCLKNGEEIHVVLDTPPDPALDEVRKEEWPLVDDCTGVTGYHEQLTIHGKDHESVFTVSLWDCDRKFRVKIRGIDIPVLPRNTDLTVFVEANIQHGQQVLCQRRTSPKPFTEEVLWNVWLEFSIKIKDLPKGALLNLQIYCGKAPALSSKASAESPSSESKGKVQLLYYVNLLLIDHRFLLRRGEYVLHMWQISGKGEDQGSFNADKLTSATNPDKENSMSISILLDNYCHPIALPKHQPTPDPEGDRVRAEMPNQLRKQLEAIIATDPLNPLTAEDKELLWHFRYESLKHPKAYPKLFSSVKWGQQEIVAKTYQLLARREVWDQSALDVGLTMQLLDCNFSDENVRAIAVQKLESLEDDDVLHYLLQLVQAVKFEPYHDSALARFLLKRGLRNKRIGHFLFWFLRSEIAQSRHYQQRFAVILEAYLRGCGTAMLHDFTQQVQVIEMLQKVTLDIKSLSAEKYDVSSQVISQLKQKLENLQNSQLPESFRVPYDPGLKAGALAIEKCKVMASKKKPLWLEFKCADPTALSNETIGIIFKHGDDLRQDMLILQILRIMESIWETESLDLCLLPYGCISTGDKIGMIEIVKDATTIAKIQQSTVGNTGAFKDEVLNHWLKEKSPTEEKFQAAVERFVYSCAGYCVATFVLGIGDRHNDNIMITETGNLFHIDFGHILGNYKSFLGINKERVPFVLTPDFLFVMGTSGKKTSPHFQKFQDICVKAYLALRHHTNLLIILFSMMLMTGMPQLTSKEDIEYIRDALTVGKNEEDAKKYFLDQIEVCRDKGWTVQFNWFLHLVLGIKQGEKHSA

Structure (SMILES) | Ki [nM]
CCn1ncc(N2Cc3cc(-c4cnc(OC)c(OC)c4)ccc3C2=O)n1 | < 100
COc1cncc(-c2cc(C)c3c(n2)C(C)(C)N(c2cc[nH]n2)C3=O)c1 | 100 to 490
COc1cc(-c2ccc3c(c2)CN(c2ccn(CC(N)=O)n2)C3=O)cnc1OC | 100 to 490
Cc1cc(-c2cncc(NC(=O)C(C)(C)C)c2)nc2c1C(=O)N(c1cnn(CC(F)(F)F)c1)C2(C)C | 100 to 490
COCCOCn1cc(N2C(=O)c3ccc(-c4cnc(OC)c(OC)c4)nc3[C@H]2C)cn1 | < 100
CCn1nc(N2Cc3cc(-c4cnc(OC)c(OC)c4)ccc3C2=O)cc1C | 100 to 490
COc1cc(-c2cc3c(c(C)n2)C(=O)N(c2cnn(CC(F)(F)F)c2)C3C)cnc1OC (configuration not stated) | < 100
COc1cc(-c2cc(C)c3c(n2)C(C)(C)N(c2cnn(CC(F)(F)F)c2)C3=O)cnc1OC(C)C | < 100
CCn1cc(N2C(=O)c3ccc(-c4cnc(OC)c(OC(F)F)c4)nc3C2C)cn1 (configuration not stated) | < 100
COc1cc(-c2ccc3c(n2)CN(c2cccc(CC#N)c2)C3=O)cnc1OC | < 100
CCc1cc(N2Cc3nc(-c4cnc(OC)c(OC)c4)cc(C)c3C2=O)nn1CC(F)(F)F | < 100
CCC#CCn1cc(N2Cc3cc(-c4cnc(OC)c(OC)c4)ccc3C2=O)cn1 | < 100
CCO[C@H]1c2nc(-c3cnc(OC)c(OC)c3)cc(C)c2C(=O)N1c1cnn(CC(F)(F)F)c1 | < 100
CCNC(=O)c1cncc(-c2cc(C)c3c(n2)C(C)N(c2cnn(CC(F)(F)F)c2)C3=O)c1 (configuration not stated) | < 100
COc1cc(-c2ccc3c(n2)[C@@H](C)N(c2cc[nH]n2)C3=O)cnc1OC | < 100
Cc1cc(-c2cncc(OC(F)F)c2)cc2c1C(=O)N(c1cnn(CC(F)(F)F)c1)C2 | < 100
COc1cncc(-c2cc(C)c3c(n2)C(C)N(c2ccn(C)n2)C3=O)c1 (configuration not stated) | < 100
Cc1cc(-c2cncc(OCC(F)F)c2)nc2c1C(=O)N(c1cnn(CC(F)F)c1)C2C (configuration not stated) | < 100
COc1cc(-c2cc(C)c3c(n2)C(C)N(c2cnn(C[C@H](C)O)c2)C3=O)cnc1OC (some centres not stated) | < 100

Structure (SMILES) | Ki [nM]
CCn1ccc(N2C(=O)c3ccc(-c4cnc(OC)c(OC)c4)nc3C2C)n1 (configuration not stated) | < 100
COc1ncc(-c2ccc3c(n2)C(C)N(c2cnn(CC(F)(F)F)c2)C3=O)cc1OC(F)F (configuration not stated) | < 100
CCn1ccc(N2Cc3nc(-c4cnc(OC)c(OC)c4)ccc3C2=O)n1 | < 100
CCn1ccc(N2C(=O)c3c(C)cc(-c4cncc(OCC(F)F)c4)nc3C2C)n1 (configuration not stated) | < 100
COc1cc(OC)c(-c2cc(C)c3c(n2)C(C)N(c2cnn(CC(F)(F)F)c2)C3=O)cn1 (configuration not stated) | < 100
COCc1cc(N2Cc3nc(-c4cnc(OC)c(OC)c4)ccc3C2=O)nn1C | < 100
COc1cncc(-c2cc(C)c3c(n2)C2(C[C@@H](O)[C@@H](O)C2)N(c2cnn(CC(F)(F)F)c2)C3=O)c1 (some centres not stated) | < 100
COc1cc(-c2ccc3c(n2)CN(c2cccs2)C3=O)cnc1OC | < 100
COc1cc(-c2ccc3c(c2)CN(c2cccc(C(C)=O)c2)C3=O)cnc1OC | 100 to 490
COC(=O)CC1c2nc(-c3cnc(OC)c(OC)c3)ccc2C(=O)N1c1cnn(CC(F)(F)F)c1 (configuration not stated) | < 100
COc1cncc(-c2cc(C)c3c(n2)C(C)N(c2ccn([C@@H]4CCOC4)n2)C3=O)c1 (some centres not stated) | < 100
COc1cc(-c2ccc3c(n2)CN(c2ccc(N4CCC(CO)C4)nc2)C3=O)cnc1OC (configuration not stated) | 100 to 490
COc1cc(-c2ccc3c(n2)C(C)N(c2ccnc(C(C)(C)C#N)c2)C3=O)cnc1OC (configuration not stated) | 100 to 490
COc1cc(-c2cc(C)c3c(n2)[C@@](C)(O)N(c2cnn(CC(F)(F)F)c2)C3=O)cnc1OC | < 100
COc1cc(-c2cc(C)c3c(n2)C2(CCOCC2)N(c2cnn(C(C)(C)C#N)c2)C3=O)cnc1OC | < 100
COc1cc(-c2ccc3c(n2)CN(c2cnn(CCN4CCCCC4)c2)C3=O)cnc1OC | 100 to 490
COc1cncc(N2Cc3nc(-c4cnc(OC)c(OC)c4)ccc3C2=O)c1 | < 100
COc1cc(-c2cc(C)c3c(n2)CN(c2cc(C)n(Cc4ccccn4)n2)C3=O)cnc1OC | < 100
COc1cc(-c2cc(C)c3c(n2)C(O)(OC)N(c2cnn(CC(F)(F)F)c2)C3=O)cnc1OC (configuration not stated) | < 100

Structure (SMILES) | Ki [nM]
Cc1cc(-c2cncc(C(=O)NC3COC3)c2)nc2c1C(=O)N(c1cnn(CC(F)(F)F)c1)C2(C)C | < 100
Cc1cc(-c2cncc(OCC(F)(F)F)c2)nc2c1C(=O)N(c1cnn(CC(F)(F)F)c1)C2C (configuration not stated) | < 100
COc1cc(-c2ccc3c(n2)CN(c2ccc(N4CCC(CO)CC4)nc2)C3=O)cnc1OC | < 100
CCOc1ncc(-c2cc(C)c3c(n2)[C@]2(CCCO2)N(c2ccn(CC)n2)C3=O)cc1OC | 100 to 490
CCOc1cc(-c2cc(C)c3c(c2)C(C)N(c2cnn(CC(F)(F)F)c2)C3=O)cnc1OCC (configuration not stated) | < 100
COc1cc(-c2cc(C)c3c(n2)C2(CCCO2)N(c2cnn(CC(F)(F)F)c2)C3=O)cnc1OC(C)C (configuration not stated) | < 100
COc1ncc(-c2cc(C)c3c(n2)C(C)(C)N(c2cnn(CC(F)(F)F)c2)C3=O)cc1C(=O)NCCN(C)C | < 100
COc1cc(-c2cc(C)c3c(n2)C(C)N(c2cnn(CC(F)F)c2)C3=O)cnc1OC (configuration not stated) | < 100
COc1cc(-c2ccc3c(c2)CN(c2cnn(CCC#N)c2)C3=O)cnc1OC | < 100
COc1ncc(-c2cc(C)c3c(n2)CN(c2cn[nH]c2)C3=O)cc1OCC(F)(F)F | < 100
COc1cc(-c2ccc3c(n2)CN(c2ccc(OCCCC(F)(F)F)nc2)C3=O)cnc1OC | < 100
COc1cc(-c2cc(C)c3c(n2)CN(c2cc(C)[nH]n2)C3=O)cnc1OC | < 100
COc1cc(-c2ccc3c(n2)CN(c2cc(C)n(CC(F)(F)F)n2)C3=O)cnc1OC | < 100
CCOc1ncc(-c2cc(C)c3c(n2)C(O)N(c2cnn(CC(F)(F)F)c2)C3=O)cc1OC (configuration not stated) | < 100
COc1cncc(-c2cc(C)c3c(n2)[C@]2(CCCO2)N(c2cnn(CC(F)(F)F)c2)C3=O)c1 | 100 to 490
COc1cncc(-c2cc(C)c3c(n2)[C@@H](C)N(c2cn[nH]c2)C3=O)c1 | < 100
COc1cc(-c2ccc3c(n2)CN(c2cncc(CC#N)c2)C3=O)cnc1OC | < 100
Cc1cc(-c2cncc(C(=O)O)c2)nc2c1C(=O)N(c1cnn(CC(F)(F)F)c1)C2C (configuration not stated) | < 100
COc1cncc(-c2cc(C)c3c(n2)C2(CC=CC2)N(c2cnn(CC(F)(F)F)c2)C3=O)c1 | < 100

More lines, now with the values ahead:

Ki [nM] | Structure (SMILES)
< 100 | CCn1cc(N2Cc3nc(-c4cnc(OC)c(OC)c4)cc(C)c3C2=O)cn1
< 100 | COc1cc(-c2cc(C)c3c(n2)CN(c2ccn(C(C)(C)C#N)n2)C3=O)cnc1OC
< 100 | CCCOc1cc(-c2cc(C)c3c(n2)CN(c2cn[nH]c2)C3=O)cnc1OC
< 100 | COc1cc(-c2ccc3c(n2)CN(c2cnn(CC(F)(F)F)c2)C3=O)cnc1OC
< 100 | Cc1cc(-c2cnc(N)c(OC(F)F)c2)nc2c1C(=O)N(c1cnn(CC(F)(F)F)c1)C2
< 100 | COc1cc(N2Cc3nc(-c4cnc(OC)c(OC)c4)cc(C)c3C2=O)ccn1
< 100 | CCCOc1cc(-c2cc(C)c3c(n2)CN(c2ccn(CC)n2)C3=O)cnc1OC
< 100 | COc1cncc(-c2cc(C)c3c(n2)C(C)(OC)N(c2cnn(CC(F)(F)F)c2)C3=O)c1 (configuration not stated)
< 100 | CCOc1cncc(-c2cc(C)c3c(n2)C(C)(C)N(c2cnn(CC#N)c2)C3=O)c1
< 100 | CCNC(=O)Cn1cc(N2Cc3nc(-c4cnc(OC)c(OC)c4)ccc3C2=O)cn1
< 100 | Cc1cc(-c2cncc(C(=O)NC(C)(C)C)c2)nc2c1C(=O)N(c1cnn(CC(F)(F)F)c1)C2
< 100 | COc1cncc(-c2cc(C)c3c(c2)CN(c2cnn(CC(F)(F)F)c2)C3=O)c1
100 to 490 | CCn1cc(N2Cc3cc(-c4cnc5ccccc5c4)ccc3C2=O)cn1
< 100 | CCn1ccc(N2Cc3nc(-c4cnc(OC)c(OCC(F)(F)F)c4)cc(C)c3C2=O)n1
< 100 | COc1cncc(-c2cc(C)c3c(n2)CN(c2cnn(C(C)(C)C#N)c2)C3=O)c1
< 100 | CCOc1ncc(-c2cc(C)c3c(n2)CN(c2cnn(CC)c2)C3=O)cc1OC
< 100 | COc1cccc(-c2cc(C)c3c(n2)CN(c2cnn(C(C)(C)C#N)c2)C3=O)c1
< 100 | Cc1cc(-c2cncc(C#N)c2)nc2c1C(=O)N(c1cnn(CC#N)c1)C2
< 100 | COCn1cc(N2Cc3nc(-c4cnc(OC)c(OC)c4)ccc3C2=O)cn1
< 100 | COc1ccc(-c2cc(C)c3c(n2)CN(c2cnn(CC#N)c2)C3=O)c(OC)n1

Ki [nM] | Structure (SMILES)
< 100 | COc1cncc(-c2cc(C)c3c(n2)CN(c2ccn([C@@H]4CCOC4)n2)C3=O)c1
< 100 | COc1cc(-c2cc(C)c3c(n2)CN(c2cn[nH]c2)C3=O)cnc1OC
< 100 | CCCCOCCOc1cc(-c2cc(C)c3c(n2)CN(c2cnn(CC(F)(F)F)c2)C3=O)cnc1OC
< 100 | Cc1cc(-c2cccc(OC(F)(F)F)c2)nc2c1C(=O)N(c1cnn(CC(F)(F)F)c1)C2
< 100 | COc1cc(-c2cc(C)c3c(n2)CN(c2cnn(CC(F)(F)F)c2)C3=O)cnc1OC
< 100 | CCc1cc(-c2cnc(OC)c(OC)c2)nc2c1C(=O)N(c1cnn(CC(F)(F)F)c1)C2
100 to 490 | COc1cc(-c2ccc3c(n2)CN(c2cnn(CCn4cccn4)c2)C3=O)cnc1OC
100 to 490 | COc1ccc(-c2ccc3c(n2)CN(c2cnn(CC#N)c2)C3=O)c(C)n1
100 to 490 | COc1cc(-c2cc(C)c3c(n2)CN(c2ncccn2)C3=O)cnc1OC
< 100 | CCOc1ccnc(N2Cc3nc(-c4cnc(OC)c(OC)c4)cc(C)c3C2=O)c1
< 100 | CCn1cc(N2Cc3nc(-c4cccc(OC)c4)cc(C)c3C2=O)cn1
100 to 490 | Cc1cc(-c2cncc(C(=O)N3CCCC3)c2)nc2c1C(=O)N(c1cnn(CC(F)(F)F)c1)C2
< 100 | COc1ncc(-c2cc(C)c3c(n2)CN(c2cnn(CC(F)(F)F)c2)C3=O)cc1F
< 100 | CCOc1cncc(-c2cc(C)c3c(n2)C(C)(C)N(c2cnn(CC(F)F)c2)C3=O)c1
< 100 | CCn1cc(N2Cc3nc(-c4cnc(OC)c(OCC(F)F)c4)cc(C)c3C2=O)cn1
100 to 490 | Cc1cc(-c2cncc(CO)c2)nc2c1C(=O)N(c1cc[nH]n1)C2
< 100 | COc1cncc(-c2cc(C)c3c(n2)CN(c2cnn(CC(F)(F)F)c2)C3=O)c1
< 100 | COc1cncc(-c2cc(C)c3c(n2)CN(c2cc[nH]n2)C3=O)c1
< 100 | Cc1cc(-c2cncc(OC(F)F)c2)nc2c1C(=O)N(c1cnn(C)c1)C2
< 100 | Cc1cc(-c2cncc(S(C)(=O)=O)c2)nc2c1C(=O)N(c1cnn(CC(F)(F)F)c1)C2
